Assay results reported in ChEMBL document CHEMBL3885861, “Open TG-GATES”.

Organism: Rattus norvegicus
Assay: Open TG-GATES - Regimen: Daily Repeat
Type: toxicity, organism-based, Sprague-Dawley
Parameters: regimen Daily Repeat, gender Male, age 6 weeks
Conditions: in vivo, po, 300 mg/kg, route gavage, dose level Middle; for APTT / Bas / Eos / Fbg / Hb / Ht / Lym / MCH / MCHC / MCV / Mono / Neu / PT / Plat / RBC / Ret / WBC: tissue Blood; for KIDNEY_L / KIDNEY_R / KIDNEY_TOTAL: tissue Kidney; for LIVER: tissue Liver; for A/G / ALP / ALT / AST / BUN / CRE / Ca / Cl / DBIL / GLC / IP / K / LDH / Na / PL / RALB / TBIL / TC / TG / TP / gamma-GTP: tissue Plasma

For `CCOc1ccc(NC(=O)CC(C)O)cc1` (configuration not stated) [BUCETIN], the TERMINAL_BW (72 h, time 3 day) was 247.8 g, the APTT (72 h, time 3 day) was 18.9 s and the Bas (72 h, time 3 day) was 0%. The Eos (72 h, time 3 day) was 1.2%, the Fbg (72 h, time 3 day) was 291.2 mg/dL and the Hb (72 h, time 3 day) was 13.1 g/dL. It also gave a Ht (72 h, time 3 day) of 39.1%, a Lym (72 h, time 3 day) of 72.8% and an MCH (72 h, time 3 day) of 20.5 pg. For the same compound, the MCHC (72 h, time 3 day) was 33.4%, the MCV (72 h, time 3 day) was 61.3 fL and the Mono (72 h, time 3 day) was 3.4%. The Neu (72 h, time 3 day) was 21.6%, the PT (72 h, time 3 day) was 14.2 s and the Plat (72 h, time 3 day) was 123.5 x10_4/uL. The RBC (72 h, time 3 day) was 638.8 x10_4/ul, the Ret (72 h, time 3 day) was 6.8% and the WBC (72 h, time 3 day) was 109.9 x10_2/uL. The KIDNEY_L (72 h, time 3 day) was 1 g, the KIDNEY_R (72 h, time 3 day) was 1 g and the KIDNEY_TOTAL (72 h, time 3 day) was 2 g. For the same compound, the LIVER (72 h, time 3 day) was 11.7 g, the A/G (72 h, time 3 day) was 0.9 and the ALP (72 h, time 3 day) was 1855.6 IU/L. The ALT (72 h, time 3 day) was 39.2 IU/L, the AST (72 h, time 3 day) was 68.2 IU/L and the BUN (72 h, time 3 day) was 15.2 mg/dL. For the same compound, the CRE (72 h, time 3 day) was 0.2 mg/dL, the Ca (72 h, time 3 day) was 10.8 mg/dL and the Cl (72 h, time 3 day) was 104.8 meq/L. For the same compound, the DBIL (72 h, time 3 day) was 0.024 mg/dL, the GLC (72 h, time 3 day) was 184 mg/dL and the IP (72 h, time 3 day) was 6.9 mg/dL. The K (72 h, time 3 day) was 4.2 meq/L, the LDH (72 h, time 3 day) was 99.6 IU/L and the Na (72 h, time 3 day) was 143.4 meq/L. For the same compound, the PL (72 h, time 3 day) was 164.2 mg/dL, the RALB (72 h, time 3 day) was 2.7 g/dL and the TBIL (72 h, time 3 day) was 0.052 mg/dL. The TC (72 h, time 3 day) was 82.8 mg/dL, the TG (72 h, time 3 day) was 116.2 mg/dL and the TP (72 h, time 3 day) was 5.8 g/dL. It also gave a gamma-GTP (72 h, time 3 day) of 1 IU/L, a TERMINAL_BW ([…], time 7 day) of 289.1 g and a TERMINAL_BW ([…], time 14 day) of 360.7 g. For the same compound, the TERMINAL_BW ([…], time 28 day) was 431.8 g, the APTT ([…], time 7 day) was 16.1 s and the Bas ([…], time 7 day) was 0%. For the same compound, the Eos ([…], time 7 day) was 1%, the Fbg ([…], time 7 day) was 278.6 mg/dL and the Hb ([…], time 7 day) was 13.4 g/dL. For the same compound, the Ht ([…], time 7 day) was 39.6%, the Lym ([…], time 7 day) was 74% and the MCH ([…], time 7 day) was 21.1 pg. It also gave an MCHC ([…], time 7 day) of 33.7%, an MCV ([…], time 7 day) of 62.5 fL and a Mono ([…], time 7 day) of 2.8%. It also gave a Neu ([…], time 7 day) of 21.6%, a PT ([…], time 7 day) of 14 s and a Plat ([…], time 7 day) of 120 x10_4/uL. For the same compound, the RBC ([…], time 7 day) was 634.2 x10_4/ul, the Ret ([…], time 7 day) was 6.8% and the WBC ([…], time 7 day) was 107.3 x10_2/uL. For the same compound, the APTT ([…], time 14 day) was 15.9 s, the Bas ([…], time 14 day) was 0% and the Eos ([…], time 14 day) was 1%. The Fbg ([…], time 14 day) was 312 mg/dL, the Hb ([…], time 14 day) was 14.4 g/dL and the Ht ([…], time 14 day) was 42.4%. For the same compound, the Lym ([…], time 14 day) was 75.2%, the MCH ([…], time 14 day) was 20.8 pg and the MCHC ([…], time 14 day) was 34.1%. It also gave an MCV ([…], time 14 day) of 61 fL, a Mono ([…], time 14 day) of 2.4% and a Neu ([…], time 14 day) of 21.2%. The PT ([…], time 14 day) was 13.8 s, the Plat ([…], time 14 day) was 113 x10_4/uL and the RBC ([…], time 14 day) was 695.6 x10_4/ul. It also gave a Ret ([…], time 14 day) of 4.7%, a WBC ([…], time 14 day) of 106.6 x10_2/uL and an APTT ([…], time 28 day) of 18.8 s. The Bas ([…], time 28 day) was 0%, the Eos ([…], time 28 day) was 1.4% and the Fbg ([…], time 28 day) was 274 mg/dL. It also gave a Hb ([…], time 28 day) of 14.7 g/dL, a Ht ([…], time 28 day) of 42.6% and a Lym ([…], time 28 day) of 74.6%. For the same compound, the MCH ([…], time 28 day) was 19.3 pg, the MCHC ([…], time 28 day) was 34.5% and the MCV ([…], time 28 day) was 56 fL. It also gave a Mono ([…], time 28 day) of 2.2%, a Neu ([…], time 28 day) of 20.6% and a PT ([…], time 28 day) of 14.1 s. It also gave a Plat ([…], time 28 day) of 106.2 x10_4/uL, an RBC ([…], time 28 day) of 760 x10_4/ul and a Ret ([…], time 28 day) of 3.5%. The WBC ([…], time 28 day) was 138.7 x10_2/uL, the KIDNEY_L ([…], time 7 day) was 1.2 g and the KIDNEY_R ([…], time 7 day) was 1.1 g. The KIDNEY_TOTAL ([…], time 7 day) was 2.3 g, the KIDNEY_L ([…], time 14 day) was 1.4 g and the KIDNEY_R ([…], time 14 day) was 1.4 g. It also gave a KIDNEY_TOTAL ([…], time 14 day) of 2.7 g, a KIDNEY_L ([…], time 28 day) of 1.6 g and a KIDNEY_R ([…], time 28 day) of 1.6 g. It also gave a KIDNEY_TOTAL ([…], time 28 day) of 3.2 g, an LIVER ([…], time 7 day) of 13.6 g and an LIVER ([…], time 14 day) of 17.2 g. For the same compound, the LIVER ([…], time 28 day) was 18.4 g, the A/G ([…], time 7 day) was 0.8 and the ALP ([…], time 7 day) was 1676.6 IU/L. For the same compound, the ALT ([…], time 7 day) was 42.4 IU/L, the AST ([…], time 7 day) was 67.4 IU/L and the BUN ([…], time 7 day) was 15.8 mg/dL. It also gave a CRE ([…], time 7 day) of 0.2 mg/dL, a Ca ([…], time 7 day) of 11 mg/dL and a Cl ([…], time 7 day) of 105.2 meq/L. For the same compound, the DBIL ([…], time 7 day) was 0.018 mg/dL, the GLC ([…], time 7 day) was 190.6 mg/dL and the IP ([…], time 7 day) was 6.6 mg/dL. It also gave a K ([…], time 7 day) of 4.2 meq/L, an LDH ([…], time 7 day) of 115.2 IU/L and a Na ([…], time 7 day) of 143.8 meq/L. It also gave a PL ([…], time 7 day) of 178 mg/dL, an RALB ([…], time 7 day) of 2.7 g/dL and a TBIL ([…], time 7 day) of 0.04 mg/dL. The TC ([…], time 7 day) was 91.2 mg/dL, the TG ([…], time 7 day) was 131.2 mg/dL and the TP ([…], time 7 day) was 5.9 g/dL. For the same compound, the gamma-GTP ([…], time 7 day) was 1 IU/L, the A/G ([…], time 14 day) was 0.8 and the ALP ([…], time 14 day) was 1729.4 IU/L. For the same compound, the ALT ([…], time 14 day) was 34.2 IU/L, the AST ([…], time 14 day) was 63 IU/L and the BUN ([…], time 14 day) was 15 mg/dL. The CRE ([…], time 14 day) was 0.2 mg/dL, the Ca ([…], time 14 day) was 11.2 mg/dL and the Cl ([…], time 14 day) was 104 meq/L. For the same compound, the DBIL ([…], time 14 day) was 0.02 mg/dL, the GLC ([…], time 14 day) was 189.4 mg/dL and the IP ([…], time 14 day) was 6.9 mg/dL. The K ([…], time 14 day) was 4 meq/L, the LDH ([…], time 14 day) was 72.8 IU/L and the Na ([…], time 14 day) was 143.4 meq/L. It also gave a PL ([…], time 14 day) of 179.2 mg/dL, an RALB ([…], time 14 day) of 2.8 g/dL and a TBIL ([…], time 14 day) of 0.048 mg/dL. The TC ([…], time 14 day) was 79.8 mg/dL, the TG ([…], time 14 day) was 208.6 mg/dL and the TP ([…], time 14 day) was 6.3 g/dL. It also gave a gamma-GTP ([…], time 14 day) of 1 IU/L, an A/G ([…], time 28 day) of 0.8 and an ALP ([…], time 28 day) of 1081.4 IU/L. For the same compound, the ALT ([…], time 28 day) was 39 IU/L, the AST ([…], time 28 day) was 62.4 IU/L and the BUN ([…], time 28 day) was 15.2 mg/dL. It also gave a CRE ([…], time 28 day) of 0.3 mg/dL, a Ca ([…], time 28 day) of 11.2 mg/dL and a Cl ([…], time 28 day) of 104.8 meq/L. It also gave a DBIL ([…], time 28 day) of 0.028 mg/dL, a GLC ([…], time 28 day) of 188.8 mg/dL and an IP ([…], time 28 day) of 6.3 mg/dL. The K ([…], time 28 day) was 3.8 meq/L, the LDH ([…], time 28 day) was 78.8 IU/L and the Na ([…], time 28 day) was 145.4 meq/L. For the same compound, the PL ([…], time 28 day) was 170.6 mg/dL, the RALB ([…], time 28 day) was 2.8 g/dL and the TBIL ([…], time 28 day) was 0.07 mg/dL. The TC ([…], time 28 day) was 77.2 mg/dL, the TG ([…], time 28 day) was 188.2 mg/dL and the TP ([…], time 28 day) was 6.3 g/dL. For the same compound, the gamma-GTP ([…], time 28 day) was 1 IU/L.
